Laboratory results: patent publication US20210205236A1, “THERAPEUTIC COMBINATIONS OF BOSWELLIA EXTRACT AND CANNABINOIDS” (priority 2018, published 2021)
Where two headings read alike, the source gives them in different places.

Legend:
[1] = target: T1, CB1 receptor (Homo sapiens, UniProt P21554); format: cell-based; conditions: THCA or THC alone, 10 μM
T1 construct: expressed in transfected cells

[2] = target: T1, CB1 receptor; assay: cell-based; format: cell-based
[3] = THCA or THC 10 μM without AKBA, CP55940-induced activity = 100%
[4] = THCA or THC 10 μM without AKBA, Table 3 data re-expressed as fold change

T1 sequence (P21554 whole entry): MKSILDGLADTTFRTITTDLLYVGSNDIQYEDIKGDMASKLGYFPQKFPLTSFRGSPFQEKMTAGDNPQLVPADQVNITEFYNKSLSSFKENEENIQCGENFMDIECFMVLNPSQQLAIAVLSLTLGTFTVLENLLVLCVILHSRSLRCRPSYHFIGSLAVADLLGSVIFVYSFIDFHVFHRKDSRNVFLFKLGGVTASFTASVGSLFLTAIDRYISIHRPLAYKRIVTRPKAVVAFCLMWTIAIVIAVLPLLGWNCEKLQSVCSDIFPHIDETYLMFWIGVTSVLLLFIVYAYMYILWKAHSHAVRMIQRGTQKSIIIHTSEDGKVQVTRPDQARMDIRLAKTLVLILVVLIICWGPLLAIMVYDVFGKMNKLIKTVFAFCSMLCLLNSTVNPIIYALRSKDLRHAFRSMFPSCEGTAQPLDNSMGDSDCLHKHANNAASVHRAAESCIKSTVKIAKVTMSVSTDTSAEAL

CCCCCc1cc2c(c(O)c1C(=O)O)[C@@H]1C=C(C)CC[C@H]1C(C)(C)O2 [THCA, tetrahydrocannabinolic acid]
Conclusions: Is CB1R agonist effect observed? [1]: Negative (Only treatments that the mean of three consecutive independent experiments shows a positive result: CB1R activity ≥ 2.5-fold increase or ≥ 4-fold increase are considered CB1R agonists or CB1R positive allosteric modulators) | Experiment 1 Fold change [1]: 1.2 Fold change | Experiment 2 Fold change [1]: 1.1 Fold change | Experiment 3 Fold change [1]: 0.8 Fold change | Effect of cannabinoid on AKBA CB1R positive allosteric activity ([2]; AKBA 50 and 100 μM, THCA 10 μM or CBD 1 μM): reduced the AKBA allosteric activity | Conclusions: Is CB1R antagonist effect observed? ([2]; THCA or THC 10 μM without AKBA, % of activity data): Negative (Only treatments that the mean of three consecutive independent experiments show a positive result (CB1R activity ≤ 50%) are considered antagonists of CB1R activity) | Experiment 1 % of activity [2, 3]: 163.2% | Experiment 2 % of activity [2, 3]: 118.4% | Experiment 3 % of activity [2, 3]: 86.5% | Experiment 1 Fold change [2, 4]: 4.1 Fold change | Experiment 2 Fold change [2, 4]: 3.0 Fold change | Experiment 3 Fold change [2, 4]: 2.2 Fold change | Conclusions: Is CB1R antagonist effect observed? ([2]; THCA or THC 10 μM without AKBA, positive allosteric activity, fold change data): Negative (Only treatments that the mean of three consecutive independent experiments show a positive result (CB1R activity ≥ 4-fold change) are considered positive CB1R allosteric agonists)
